Source: patent US8642597B2, “Pyrazole compounds for controlling invertebrate pests” (BASF SE, priority 2007, dated 2014)

Key:
Format in all cases: in vivo
[1] = system: Vetch Aphid (Megoura viciae); assay: Vetch aphid (Megoura viciae), bean leaf disk microtiterplate test; conditions: foliar, 144 h, concentration of the test solution 2500 mg/L, 6 days
Method: The active compounds were formulated in 1:3 (vol:vol) DMSO:water with different concentrations of formulated compounds.
Bean leaf disks were placed into microtiterplates filled with 0.8% agar-agar and 2.5 ppm OPUS™. The leaf disks were sprayed with 2.5 μl of the test solution and 5 to 8 adult aphids were placed into the microtiterplates which were then closed and kept at 23±1° C. and 50±5% relative humidity under fluorescent light for 6 days. Mortality was assessed on the basis of vital, reproduced aphids. Aphid mortality and fecundity was then visually assessed.

[2] = system: Cowpea Aphid (aphis craccivora); assay: Cowpea aphid (aphis craccivora), spray on potted cowpea plants; conditions: population reduction assessed after 24, 72 and 120 hours, in comparison with untreated controls
Method: The active compounds were formulated in 50:50 (vol:vol) acetone:water. The test solution was prepared at the day of use.
Potted cowpea plants colonized with 100-150 aphids of various stages were sprayed after the pest population had been recorded. Population reduction was assessed after 24, 72, and 120 hours.

[3] = system: Green Peach Aphid (Myzus persicae, Mixed Life Stages); assay: Green peach aphid (Myzus persicae, mixed life stages), pepper leaf dip test; conditions: foliar, 120 h, after 5 days, in comparison with untreated controls
From the text: (§1) The active compounds were formulated in 50:50 (vol:vol) acetone:water and 100 ppm Kinetica™ surfactant.
Pepper plants in the 2nd leaf-pair stage (variety ‘California Wonder’) were infested with approximately 40 laboratory-reared aphids by placing infested leaf sections on top of the test plants. The leaf sections were removed after 24 hr. The leaves of the intact plants were dipped into gradient solutions of the test compound and allowed to dry. Test plants were maintained under fluorescent light (24 hour photoperiod) at about 25° C. and 20-40% relative humidity. Aphid mortality on the treated plants, relative to mortality on check plants, was determined after 5 days.

[4] = system: Cotton Aphid (aphis gossypii, Mixed Life Stages); assay: Cotton aphid (aphis gossypii, mixed life stages), cotyledon dip test; conditions: 120 h, mortality counts after 5 days, in comparison with untreated controls
From the text: as §1
Cotton plants at the cotyledon stage (one plant per pot) were infested by placing a heavily infested leaf from the main colony on top of each cotyledon. The aphids were allowed to transfer to the host plant overnight, and the leaf used to transfer the aphids was removed. The cotyledons were dipped in the test solution and allowed to dry. After 5 days, mortality counts were made.

[5] = system: Boll Weevil (Anthonomus grandis); assay: Boll weevil (Anthonomus grandis), insect diet microtiter plate test; conditions: 120 h, concentration of the test solution 2500 mg/L, egg and larval mortality after 5 days
Method: The compounds were formulated in 75:25 (vol:vol) water:DMSO.
For evaluating control of boll weevil (Anthonomus grandis) the test unit consisted of 24-well-microtiter plates containing an insect diet and 20-30 A. grandis eggs. Different concentrations of formulated compounds were sprayed onto the insect diet at 20 μl, using a custom built micro atomizer, at two replications. After application, the microtiter plates were incubated at 23±1° C. and 50±5% relative humidity for 5 days. Egg and larval mortality was then visually assessed.

Row | SMILES | mortality at 2500 µg/mL [1] | mortality at 300 ppm [2] | mortality at 300 ppm [3] | mortality at 300 ppm [4] | mortality at 2500 µg/mL [5]
1 | N#CN(C(=O)c1cnn(C(F)F)c1C(F)F)c1cccnc1 [Compound 210] | ≥ 80% | ≥ 75% | ≥ 50% | ≥ 75% | –
2 | O=C(Nc1cccnc1)c1cnn(-c2cccc([N+](=O)[O-])c2)c1C(F)F [Compound 153] | ≥ 80% | – | – | – | 100%
3 | Cn1ccc(C(=O)Nc2cccnc2)n1 [Compound 1] | – | ≥ 75% | ≥ 50% | ≥ 75% | –
4 | Cc1cc(C(=O)Nc2cccnc2)n(C)n1 [Compound 3] | ≥ 80% | ≥ 75% | ≥ 50% | ≥ 75% | –
5 | O=C(Nc1cccnc1)c1cnn(C(F)F)c1C(F)F [Compound 188] | – | ≥ 75% | ≥ 50% | ≥ 75% | 100%
6 | O=C(Nc1cccnc1)c1cnn(-c2ccccc2Cl)c1C(F)F [Compound 148] | ≥ 80% | ≥ 75% | ≥ 50% | ≥ 75% | 100%
7 | Cc1c(C(=O)N(C)c2cccnc2)cnn1C [Compound 178] | – | ≥ 75% | ≥ 50% | ≥ 75% | –
8 | Cc1ccc(S(=O)(=O)N(C(=O)c2cn(C)nc2C(F)(F)F)c2cccnc2)cc1 [Compound 136] | ≥ 80% | ≥ 75% | ≥ 50% | ≥ 75% | –
9 | CN(C(=O)c1cnn(C(F)F)c1)c1cccnc1 [Compound 222] | – | ≥ 75% | ≥ 50% | ≥ 75% | –
10 | Cn1cc(C(=O)Nc2cccnc2)cn1 [Compound 107] | ≥ 80% | ≥ 75% | ≥ 50% | ≥ 75% | 100%
11 | O=C(Nc1cccnc1)c1cnn(-c2ccccn2)c1 [Compound 105] | – | – | ≥ 50% | ≥ 75% | 100%
12 | CCn1cc(C(=O)N(C)c2cccnc2)cn1 [Compound 187] | – | ≥ 75% | ≥ 50% | ≥ 75% | –
13 | Cc1nn(C)cc1C(=O)Nc1cccnc1 [Compound 70] | – | ≥ 75% | ≥ 50% | ≥ 75% | –
14 | O=C(Nc1cccnc1)c1cnn(-c2ccc(F)cc2)c1I [Compound 124] | ≥ 80% | ≥ 75% | ≥ 50% | ≥ 75% | –
15 | O=C(Nc1cccnc1)c1cn(C(F)F)nc1C(F)(F)F [Compound 192] | – | ≥ 75% | ≥ 50% | ≥ 75% | 100%
16 | O=C(Nc1cccnc1)c1cnn(Cc2ccc(Cl)cc2)c1 [Compound 81] | – | ≥ 75% | ≥ 50% | – | 100%
17 | O=C(Nc1cccnc1)c1cnn(C2CC2)c1 [Compound 119] | ≥ 80% | ≥ 75% | ≥ 50% | ≥ 75% | –
18 | CN(C(=O)c1cnn(C)c1)c1cccnc1 [Compound 177] | – | ≥ 75% | ≥ 50% | ≥ 75% | –
19 | O=C(Nc1cccnc1)c1cnn(-c2c(F)cccc2F)c1C(F)F [Compound 162] | ≥ 80% | – | – | – | 100%
20 | O=C(Nc1cccnc1)c1cnn(C(F)(F)F)c1 [Compound 205] | ≥ 80% | ≥ 75% | ≥ 50% | ≥ 75% | –
21 | CC(C)n1cc(C(=O)Nc2cccnc2)cn1 [Compound 97] | ≥ 80% | – | – | – | –
